According to patent US6339042B1, “Herbicidal N-cyclohexadienyl heteroaryloxyacetamides” (American Cyanamid Co., priority 1999, dated 2002):

Assays:
Conditions in all cases: three weeks after treatment
Glycine max [1] = test: Post-emergence herbicidal evaluation, GLXMA
Description: (§2) Each pot is examined three weeks after treatment and phytotoxicity is assessed according to the rating system set forth below.
(§3) These acetone solutions are diluted with water and the resulting formulations applied at dosage levels equivalent of about 0.4 to 0.1 kg per hectare of test compound per pot. After spraying the plants are placed on greenhouse benches and are cared for in the usual manner, commensurate with conventional greenhouse practices.

Hordeum vulgare [2] = test: Pre-emergence herbicidal evaluation, HORVW; format: in vivo
Text: (§1) The treated pots are then placed on greenhouse benches, watered and cared for in accordance with conventional greenhouse procedures.

Oryza sativum [3] = test: Pre-emergence herbicidal evaluation, ORYSA; format: in vivo
Text: as §1

Echinochloa crus-galli [4] = test: Post-emergence herbicidal evaluation, ECHCG
Triticum aestivum [5] = test: Pre-emergence herbicidal evaluation, TRZAW; format: in vivo
Text: as §1

Alopecurus myosuroides [6] = test: Pre-emergence herbicidal evaluation, ALOMY; format: in vivo
Text: as §1

Apera spica venti [7] = test: Post-emergence herbicidal evaluation, APESV
Description: (§4) The compounds of the invention are tested for pre- and post-emergence herbicidal activity.
as §2, §3

Amaranthus tuberculatus [8] = test: Post-emergence herbicidal evaluation, AMATA; format: in vivo
Echinochloa crus-galli [9] = test: Pre-emergence herbicidal evaluation, ECHCG; format: in vivo
Text: as §1

Galium aparine = test: Post-emergence herbicidal evaluation, GALAP
Description: as §4, §2, §3

Amaranthus tuberculatus [10] = test: Pre-emergence herbicidal evaluation, AMATA; format: in vivo
Text: as §1

Triticum aestivum [11] = test: Post-emergence herbicidal evaluation, TRZAW
Lolium perenne [12] = test: Post-emergence herbicidal evaluation, LOLPE
Zea mays [13] = test: Post-emergence herbicidal evaluation, ZEAMX
Zea mays [14] = test: Pre-emergence herbicidal evaluation, ZEAMX; format: in vivo
Text: as §1

Setaria viridis [15] = test: Pre-emergence herbicidal evaluation, SETVI; format: in vivo
Text: as §1

Alopecurus myosuroides [16] = test: Post-emergence herbicidal evaluation, ALOMY
Glycine max [17] = test: Pre-emergence herbicidal evaluation, GLXMA; format: in vivo
Text: as §1

Lolium perenne [18] = test: Pre-emergence herbicidal evaluation, LOLPE; format: in vivo
Text: as §1

Setaria viridis [19] = test: Post-emergence herbicidal evaluation, SETVI
Description: as §4, §2, §3

Apera spica venti [20] = test: Pre-emergence herbicidal evaluation, APESV; format: in vivo
Text: as §1

Oryza sativum [21] = test: Post-emergence herbicidal evaluation, ORYSA
Hordeum vulgare [22] = test: Post-emergence herbicidal evaluation, HORVW
Description: as §2, §3

Structure (SMILES): CCc1nnc(OCC(=O)N(C2=CC(C)(C)CC(C)=C2)C(C)C)s1 [Example 11]
- phytotoxicity rating GLXMA (Glycine max [1]; 0.100 kg/ha): 3 (3 - Moderate effect)
- phytotoxicity rating GLXMA (Glycine max [1]; 0.200 kg/ha): 5 (5 - Definite injury)
- phytotoxicity rating GLXMA (Glycine max [1]; 0.400 kg/ha): 5 (5 - Definite injury)
- phytotoxicity rating HORVW (Hordeum vulgare [2]; 0.100 kg/ha): 0 (0 - No effect)
- phytotoxicity rating HORVW (Hordeum vulgare [2]; 0.200 kg/ha): 0 (0 - No effect)
- phytotoxicity rating HORVW (Hordeum vulgare [2]; 0.400 kg/ha): 1 (1 - Trace effect)
- phytotoxicity rating HORVW (Hordeum vulgare [2]; 0.800 kg/ha): 4 (4 - Injury)
- phytotoxicity rating ORYSA (Oryza sativum [3]; 0.100 kg/ha): 0 (0 - No effect)
- phytotoxicity rating ORYSA (Oryza sativum [3]; 0.200 kg/ha): 1 (1 - Trace effect)
- phytotoxicity rating ORYSA (Oryza sativum [3]; 0.400 kg/ha): 4 (4 - Injury)
- phytotoxicity rating ORYSA (Oryza sativum [3]; 0.800 kg/ha): 6 (6 - Herbicidal effect)
- phytotoxicity rating ECHCG (Echinochloa crus-galli [4]; 0.100 kg/ha): 0 (0 - No effect)
- phytotoxicity rating ECHCG (Echinochloa crus-galli [4]; 0.200 kg/ha): 2 (2 - Slight effect)
- phytotoxicity rating ECHCG (Echinochloa crus-galli [4]; 0.400 kg/ha): 3 (3 - Moderate effect)
- phytotoxicity rating TRZAW (Triticum aestivum [5]; 0.100 kg/ha): 0 (0 - No effect)
- phytotoxicity rating TRZAW (Triticum aestivum [5]; 0.200 kg/ha): 0 (0 - No effect)
- phytotoxicity rating TRZAW (Triticum aestivum [5]; 0.400 kg/ha): 2 (2 - Slight effect)
- phytotoxicity rating TRZAW (Triticum aestivum [5]; 0.800 kg/ha): 3 (3 - Moderate effect)
- phytotoxicity rating ALOMY (Alopecurus myosuroides [6]; 0.100 kg/ha): 7 (7 - Good herbicidal effect)
- phytotoxicity rating ALOMY (Alopecurus myosuroides [6]; 0.200 kg/ha): 8 (8 - Approaching complete kill)
- phytotoxicity rating ALOMY (Alopecurus myosuroides [6]; 0.400 kg/ha): 8 (8 - Approaching complete kill)
- phytotoxicity rating ALOMY (Alopecurus myosuroides [6]; 0.800 kg/ha): 9 (9 - Complete kill)
- phytotoxicity rating APESV (Apera spica venti [7]; 0.100 kg/ha): 0 (0 - No effect)
- phytotoxicity rating APESV (Apera spica venti [7]; 0.200 kg/ha): 7 (7 - Good herbicidal effect)
- phytotoxicity rating APESV (Apera spica venti [7]; 0.400 kg/ha): 5 (5 - Definite injury)
- phytotoxicity rating AMATA (Amaranthus tuberculatus [8]; 0.100 kg/ha): 0 (0 - No effect)
- phytotoxicity rating AMATA (Amaranthus tuberculatus [8]; 0.200 kg/ha): 3 (3 - Moderate effect)
- phytotoxicity rating AMATA (Amaranthus tuberculatus [8]; 0.400 kg/ha): 4 (4 - Injury)
- phytotoxicity rating ECHCG (Echinochloa crus-galli [9]; 0.100 kg/ha): 7 (7 - Good herbicidal effect)
- phytotoxicity rating ECHCG (Echinochloa crus-galli [9]; 0.200 kg/ha): 7 (7 - Good herbicidal effect)
- phytotoxicity rating ECHCG (Echinochloa crus-galli [9]; 0.400 kg/ha): 9 (9 - Complete kill)
- phytotoxicity rating ECHCG (Echinochloa crus-galli [9]; 0.800 kg/ha): 9 (9 - Complete kill)
- phytotoxicity rating GALAP (Galium aparine; 0.100 kg/ha): 0 (0 - No effect)
- phytotoxicity rating GALAP (Galium aparine; 0.200 kg/ha): 0 (0 - No effect)
- phytotoxicity rating GALAP (Galium aparine; 0.400 kg/ha): 0 (0 - No effect)
- phytotoxicity rating AMATA (Amaranthus tuberculatus [10]; 0.100 kg/ha): 0 (0 - No effect)
- phytotoxicity rating AMATA (Amaranthus tuberculatus [10]; 0.200 kg/ha): 0 (0 - No effect)
- phytotoxicity rating AMATA (Amaranthus tuberculatus [10]; 0.400 kg/ha): 0 (0 - No effect)
- phytotoxicity rating AMATA (Amaranthus tuberculatus [10]; 0.800 kg/ha): 4 (4 - Injury)
- phytotoxicity rating TRZAW (Triticum aestivum [11]; 0.100 kg/ha): 0 (0 - No effect)
- phytotoxicity rating TRZAW (Triticum aestivum [11]; 0.200 kg/ha): 0 (0 - No effect)
- phytotoxicity rating TRZAW (Triticum aestivum [11]; 0.400 kg/ha): 1 (1 - Trace effect)
- phytotoxicity rating LOLPE (Lolium perenne [12]; 0.100 kg/ha): 3 (3 - Moderate effect)
- phytotoxicity rating LOLPE (Lolium perenne [12]; 0.200 kg/ha): 5 (5 - Definite injury)
- phytotoxicity rating LOLPE (Lolium perenne [12]; 0.400 kg/ha): 8 (8 - Approaching complete kill)
- phytotoxicity rating ZEAMX (Zea mays [13]; 0.100 kg/ha): 0 (0 - No effect)
- phytotoxicity rating ZEAMX (Zea mays [13]; 0.200 kg/ha): 1 (1 - Trace effect)
- phytotoxicity rating ZEAMX (Zea mays [13]; 0.400 kg/ha): 4 (4 - Injury)
- phytotoxicity rating ZEAMX (Zea mays [14]; 0.100 kg/ha): 0 (0 - No effect)
- phytotoxicity rating ZEAMX (Zea mays [14]; 0.200 kg/ha): 0 (0 - No effect)
- phytotoxicity rating ZEAMX (Zea mays [14]; 0.400 kg/ha): 0 (0 - No effect)
- phytotoxicity rating ZEAMX (Zea mays [14]; 0.800 kg/ha): 7 (7 - Good herbicidal effect)
- phytotoxicity rating SETVI (Setaria viridis [15]; 0.100 kg/ha): 6 (6 - Herbicidal effect)
- phytotoxicity rating SETVI (Setaria viridis [15]; 0.200 kg/ha): 8 (8 - Approaching complete kill)
- phytotoxicity rating SETVI (Setaria viridis [15]; 0.400 kg/ha): 8 (8 - Approaching complete kill)
- phytotoxicity rating SETVI (Setaria viridis [15]; 0.800 kg/ha): 9 (9 - Complete kill)
- phytotoxicity rating ALOMY (Alopecurus myosuroides [16]; 0.100 kg/ha): 1 (1 - Trace effect)
- phytotoxicity rating ALOMY (Alopecurus myosuroides [16]; 0.200 kg/ha): 7 (7 - Good herbicidal effect)
- phytotoxicity rating ALOMY (Alopecurus myosuroides [16]; 0.400 kg/ha): 8 (8 - Approaching complete kill)
- phytotoxicity rating GLXMA (Glycine max [17]; 0.100 kg/ha): 0 (0 - No effect)
- phytotoxicity rating GLXMA (Glycine max [17]; 0.200 kg/ha): 0 (0 - No effect)
- phytotoxicity rating GLXMA (Glycine max [17]; 0.400 kg/ha): 0 (0 - No effect)
- phytotoxicity rating GLXMA (Glycine max [17]; 0.800 kg/ha): 0 (0 - No effect)
- phytotoxicity rating LOLPE (Lolium perenne [18]; 0.100 kg/ha): 4 (4 - Injury)
- phytotoxicity rating LOLPE (Lolium perenne [18]; 0.200 kg/ha): 5 (5 - Definite injury)
- phytotoxicity rating LOLPE (Lolium perenne [18]; 0.400 kg/ha): 8 (8 - Approaching complete kill)
- phytotoxicity rating LOLPE (Lolium perenne [18]; 0.800 kg/ha): 9 (9 - Complete kill)
- phytotoxicity rating SETVI (Setaria viridis [19]; 0.100 kg/ha): 0 (0 - No effect)
- phytotoxicity rating SETVI (Setaria viridis [19]; 0.200 kg/ha): 0 (0 - No effect)
- phytotoxicity rating SETVI (Setaria viridis [19]; 0.400 kg/ha): 0 (0 - No effect)
- phytotoxicity rating APESV (Apera spica venti [20]; 0.100 kg/ha): 0 (0 - No effect)
- phytotoxicity rating APESV (Apera spica venti [20]; 0.200 kg/ha): 0 (0 - No effect)
- phytotoxicity rating APESV (Apera spica venti [20]; 0.400 kg/ha): 5 (5 - Definite injury)
- phytotoxicity rating APESV (Apera spica venti [20]; 0.800 kg/ha): 5 (5 - Definite injury)
- phytotoxicity rating ORYSA (Oryza sativum [21]; 0.100 kg/ha): 0 (0 - No effect)
- phytotoxicity rating ORYSA (Oryza sativum [21]; 0.200 kg/ha): 0 (0 - No effect)
- phytotoxicity rating ORYSA (Oryza sativum [21]; 0.400 kg/ha): 2 (2 - Slight effect)
- phytotoxicity rating HORVW (Hordeum vulgare [22]; 0.100 kg/ha): 0 (0 - No effect)
- phytotoxicity rating HORVW (Hordeum vulgare [22]; 0.200 kg/ha): 0 (0 - No effect)
- phytotoxicity rating HORVW (Hordeum vulgare [22]; 0.400 kg/ha): 1 (1 - Trace effect)
